For orientation: inhibition means the drop in the measured response relative to a control, in per cent. Usually MIC stands for the lowest concentration found to suppress growth.

Three molecules from ChEMBL document CHEMBL5331108, “Design and Synthesis of 4-Fluorophenyl-5-methylene-2(5H)-furanone Derivatives as Potent Quorum Sensing Inhibitors” (J Med Chem, 2023) can be followed below.

Data set [1] concerns Pseudomonas aeruginosa. As to the kind of experiment: Synergistic antibacterial activity against Pseudomonas aeruginosa 27853 assessed as inhibition of bacterial growth at 64 ug/ml incubated for 24 hrs in the presence of Ciprofloxacin by absorbance based microplate reader analysis. Format: functional.
The subject of data set [2] is Escherichia coli. As to the kind of experiment: Antibacterial activity against penicillin-susceptible Escherichia coli ATCC25922 assessed as inhibition of bacterial growth incubated for 20 hrs by CLSI protocol based microdilution method. Format: functional. On the technique in general: Dilution methods test growth across graded concentrations, often in twofold steps.

A short description of data set [3]: Inhibition of quorum sensing system in Pseudomonas aeruginosa PAO1 assessed as inhibition of pyocyanin production at 102.4 ug/ml incubated for 18 hrs by absorbance based assay. As to conditions: dose 102.4 µg/ml.
Data set [4] relates to Pseudomonas aeruginosa. As to the kind of experiment: Antibacterial activity against penicillin-susceptible Pseudomonas aeruginosa ATCC27853 assessed as inhibition of bacterial growth incubated for 20 hrs by CLSI protocol based microdilution method. Format: functional.
Data set [5] is described as follows: Hemolytic activity in mouse red blood cells assessed as hemolysis rate at 512 ug/ml incubated for 1 hrs by microplate reader analysis relative to control. Format: toxicity, cell-based, Erythrocyte. The following applies: red blood cells (erythrocytes), at 512 µg/mL, read-out: Activity.
Data set [6] has as its system Bacillus pumilus. In words: Antibacterial activity against penicillin-susceptible Bacillus pumilus CMCC63202 assessed as inhibition of bacterial growth incubated for 20 hrs by CLSI protocol based microdilution method. Type of data set: functional.
Data set [7] concerns Pseudomonas aeruginosa. In words: Synergistic antibacterial activity against Pseudomonas aeruginosa 27853 assessed as inhibition of bacterial growth incubated for 24 hrs in the presence of Clarithromycin by absorbance based microplate reader analysis. Type of data set: functional, organism-based. The following applies: dose 1-256 µg/ml.
Data set [8] deals with Pseudomonas aeruginosa. As to the kind of experiment: Synergistic antibacterial activity against Pseudomonas aeruginosa PAO1 assessed as inhibition of bacterial growth at 1 ug/ml incubated for 24 hrs in the presence of Clarithromycin by absorbance based microplate reader analysis relative to control. Format: functional.
For data set [9], the system named is Pseudomonas aeruginosa. In words: Inhibition of biofilm formation in Pseudomonas aeruginosa PAO1 at 32 ug/ml incubated for 20 hrs by crystal violet staining based analysis. Type of data set: functional.
The subject of data set [10] is Pseudomonas aeruginosa. In words: Synergistic antibacterial activity against Pseudomonas aeruginosa PAO1 assessed as inhibition of bacterial growth at 256 ug/ml incubated for 24 hrs in the presence of Clarithromycin by absorbance based microplate reader analysis relative to control. Format: functional.
Data set [11] has as its system Pseudomonas aeruginosa. As to the kind of experiment: Antibacterial activity against wild type Pseudomonas aeruginosa […] CGMCC1.12483 assessed as inhibition of bacterial growth incubated for 20 hrs by CLSI protocol based microdilution method. Format: functional.
Data set [12] relates to Bacillus subtilis. As to the kind of experiment: Antibacterial activity against penicillin-susceptible Bacillus subtilis ATCC9372 assessed as inhibition of bacterial growth incubated for 20 hrs by CLSI protocol based microdilution method. Format: functional.
In data set [13] the test system is Staphylococcus aureus. In words: Antibacterial activity against erthromycin-susceptible Staphylococcus aureus ATCC25923 assessed as inhibition of bacterial growth incubated for 20 hrs by CLSI protocol based microdilution method. Format: functional.
Data set [14] relates to Pseudomonas aeruginosa. As to the kind of experiment: Synergistic antibacterial activity against Pseudomonas aeruginosa 27853 assessed as inhibition of bacterial growth at 256 ug/ml incubated for 24 hrs in the presence of Clarithromycin by absorbance based microplate reader analysis relative to control. Type of data set: functional.
Data set [15] has as its system Pseudomonas aeruginosa. In words: Synergistic antibacterial activity against Pseudomonas aeruginosa PAO1 assessed as inhibition of bacterial growth at 1 to 256 ug/ml incubated for 24 hrs in the presence of ciprofloxacin by absorbance based microplate reader analysis. Type of data set: functional, organism-based. The following applies: dose 1-256 µg/ml.
For data set [16], the system named is Staphylococcus aureus. In words: Antibacterial activity against methicillin-resistant Staphylococcus aureus ATCC43300 assessed as inhibition of bacterial growth incubated for 20 hrs by CLSI protocol based microdilution method. Type of data set: functional.
The subject of data set [17] is Pseudomonas aeruginosa. As to the kind of experiment: Antibacterial activity against Pseudomonas aeruginosa 27853 assessed as inhibition of bacterial growth at 256 ug/ml measured after 25 hrs by absorbance based assay. As to conditions: dose 256.0 µg/ml. Type of data set: functional, organism-based.
For data set [18], the system named is Pseudomonas aeruginosa. In words: Antibacterial activity against Pseudomonas aeruginosa PAO1 assessed as inhibition of bacterial growth at 256 ug/ml measured after 25 hrs by absorbance based assay. Format: functional, organism-based. The following applies: dose 256.0 µg/ml.
Data set [19] in a line: Inhibition of quorum sensing system in Pseudomonas aeruginosa PAO1 assessed as inhibition of protease activity at 102.4 ug/ml incubated for 24 hrs by absorbance based assay. As to conditions: dose 102.4 µg/ml.
Data set [20] concerns Pseudomonas aeruginosa. As to the kind of experiment: Synergistic antibacterial activity against Pseudomonas aeruginosa PAO1 assessed as inhibition of bacterial growth at 1 to 256 ug/ml incubated for 24 hrs in the presence of Clarithromycin by absorbance based microplate reader analysis. Format: functional, organism-based. The following applies: dose 1-256 µg/ml.
Data set [21] has as its system Pseudomonas aeruginosa. As to the kind of experiment: Antibacterial activity against Pseudomonas aeruginosa PAO1 assessed as inhibition of bacterial growth at […] incubated for 24 hrs by absorbance based microplate reader analysis relative to control. Type of data set: functional. As to conditions: dose 3.2 µg/ml.
The subject of data set [22] is Pseudomonas aeruginosa. In words: Synergistic antibacterial activity against Pseudomonas aeruginosa 27853 assessed as inhibition of bacterial growth at 1 to 256 ug/ml incubated for 24 hrs in the presence of Ciprofloxacin by absorbance based microplate reader analysis. Format: functional, organism-based. As to conditions: dose 1-256 µg/ml.
Data set [23] in a line: Inhibition of quorum sensing system in Pseudomonas aeruginosa PAO1 assessed as inhibition of rhamnolipid production at 102.4 ug/ml incubated for 24 hrs by absorbance based assay. The following applies: dose 102.4 µg/ml.
For data set [24], the system named is Pseudomonas aeruginosa. In words: Antibacterial activity against Pseudomonas aeruginosa PAO1 assessed as inhibition of swarming movement at 25.6 to 102.4 ug/ml incubated for 24 hrs. The following applies: dose 25.6-102.4 µg/ml. Type of data set: functional, organism-based.
Data set [25] in a line: Inhibition of quorum sensing system in Escherichia coli pDSY harboring rhlR gene with rhlA::lacZ translation fusion assessed as inhibition of rhlA translation activation by measuring inhibition of […] activity incubated for 8 hrs by absorbance based analysis. The following applies: dose 32-128 µg/ml.
A short description of data set [26]: Inhibition of quorum sensing system in Escherichia coli pEAL08-2 harboring pqsR gene with pqsA::lacZ translation fusion assessed as inhibition of pqsA translation activation by measuring inhibition of […] activity incubated for 8 hrs by absorbance based analysis. The following applies: dose 32-128 µg/ml.
For data set [27], the system named is Pseudomonas aeruginosa. As to the kind of experiment: Synergistic antibacterial activity against Pseudomonas aeruginosa PAO1 infected in Kunming mouse model assessed as reduction in viable bacteria at 25 mg/kg, ip pre-infected with bacteria for 1 hrs followed by compound administration and measured after 1 hrs in the presence of ciprofloxacin. Type of data set: functional, organism-based.

Data set [28] is described as follows: Inhibition of quorum sensing system in Pseudomonas aeruginosa PAO1 transfected with lasB-gfp reporter assessed as inhibition of fluorescence expression incubated for >=12 hrs by microplate reader analysis. As to conditions: dose 32-256 µg/ml.
The subject of data set [29] is Pseudomonas aeruginosa. In words: Inhibition of biofilm formation in Pseudomonas aeruginosa PAO1 assessed as effect on biofilm morphology at 102.4 ug/ml incubated for 24 hrs by scanning electron microscopic analysis. As to conditions: dose 102.4 µg/ml. Format: functional, organism-based.
Data set [30] can be described thus: Inhibition of quorum sensing system in Pseudomonas aeruginosa PAO1 transfected with gfp reporter gene assessed as effect on fluorescence expression at 32 to 256 ug/ml incubated for >=12 hrs by microplate reader analysis. The following applies: dose 32-256 µg/ml. In general terms: In a reporter assay the amount or activity of a reporter protein is the signal.

Data set [31] concerns Pseudomonas aeruginosa. In words: Synergistic antibacterial activity against Pseudomonas aeruginosa PAO1 assessed as inhibition of bacterial growth at highest concentration incubated for 24 hrs in the presence of ciprofloxacin by absorbance based microplate reader analysis relative to control. Type of data set: functional.
Data set [32] relates to Pseudomonas aeruginosa. In words: Synergistic antibacterial activity against Pseudomonas aeruginosa 27853 assessed as inhibition of bacterial growth at 256 ug/ml incubated for 24 hrs in the presence of Ciprofloxacin by absorbance based microplate reader analysis relative to control. Format: functional.
Data set [33] can be described thus: Inhibition of quorum sensing system in Escherichia coli MG4/pKDT17 harboring lasR gene with lasB::lacZ translation fusion assessed as inhibition of lasR translation activation by measuring inhibition of […] activity incubated for 8 hrs by absorbance based analysis. As to conditions: dose 32-128 µg/ml.
Data set [34] in a line: Inhibition of quorum sensing system in Pseudomonas aeruginosa PAO1 transfected with pqsA-gfp reporter assessed as inhibition of fluorescence expression incubated for >=12 hrs by microplate reader analysis. The following applies: dose 32-256 µg/ml.
The subject of data set [35] is Pseudomonas aeruginosa. As to the kind of experiment: Synergistic antibacterial activity against Pseudomonas aeruginosa PAO1 assessed as inhibition of bacterial growth at 1 ug/ml incubated for 24 hrs in the presence of ciprofloxacin by absorbance based microplate reader analysis relative to control. Type of data set: functional.
Data set [36] in a line: Inhibition of quorum sensing system in Pseudomonas aeruginosa PAO1 transfected with rhlA-gfp reporter assessed as inhibition of fluorescence expression incubated for >=12 hrs by microplate reader analysis. As to conditions: dose 32-256 µg/ml.
Data set [37] has as its system Pseudomonas aeruginosa. In words: Antibacterial activity against Pseudomonas aeruginosa 27853 assessed as inhibition of bacterial growth at 0.4 ug/ml incubated for 24 hrs by absorbance based microplate reader analysis relative to control. Format: functional.
The subject of data set [38] is Pseudomonas aeruginosa. As to the kind of experiment: Antibacterial activity against Pseudomonas aeruginosa PAO1 assessed as inhibition of bacterial growth at 0.4 ug/ml incubated for 24 hrs by absorbance based microplate reader analysis relative to control. Type of data set: functional.

Activity calls are given as the source filed them. The calls are words filed in the database; no cut-off is given here.

On to `C=C1OC(=O)C(CNC(=O)c2ccc(C)cc2)=C1c1ccc(F)cc1`, for which, in [1], the inhibition at 64 µg/mL amounted to 13%. For the same molecule, the MIC in [2], in data set [4], in data set [6], in [11], in [12] and in [13] was greater than 512 µg/mL in each case. Also, in [16], the MIC is greater than 512 µg/mL. In addition, the inhibition in data set [3] was found to be 55.5%. In data set [5], the hemolysis at 1 h, 512 ug/ml was less than 2.5%. The Activity entry in data set [7] was “Dose-Dependent Effect”. Moreover, in data set [8], the inhibition at 1 µg/mL is 54%. Besides, the inhibition entry in data set [9] (dose 32.0 µg/ml), in data set [19] and in data set [23] was “Active” in each case. Further, the inhibition at 256 µg/mL came to 44.6% in [10] and 45.4% in [14]. Moreover, the outcome in [15], in data set [20] and in [22] was Active. Besides, the result in data set [17] and in [18] was inactive. The inhibition at […] in [21] was 44.6%.
`C=C1OC(=O)C(CNC(=O)c2ccc(F)cc2)=C1c1ccc(F)cc1`: the result in data set [24], in data set [27], in data set [15], in data set [20] and in data set [22] was Active. Also, the MIC in data set [2], in [4], in data set [6], in data set [11], in [12] and in data set [13] was greater than 512 µg/mL in each case. Further, the MIC in data set [16] was greater than 512 µg/mL. Further, the inhibition in data set [3] was 31.4%; in data set [25], “Dose-Dependent Effect”; in [26], “Dose-Dependent Effect”; in data set [28] it was “Dose-Dependent Effect”; in [33], “Dose-Dependent Effect”; in data set [34], “Dose-Dependent Effect”. For the same molecule, the values for the inhibition in data set [19] and in data set [36] were 30.6% and “Dose-Dependent Effect”, respectively. Also, the hemolysis at 1 h, 512 ug/ml in data set [5] is greater than 2.5%. The Activity result in data set [7] was “Dose-Dependent Effect”. At 32 µg/mL the inhibition in [9] was 50.7%. Besides, the inhibition result in [29] and in data set [23] was “Active” in each case. Moreover, the inhibition result in data set [30] was “inactive”. In [31], the “inhibition (INH)” value is recorded as 90.53%. The values for the inhibition at 256 µg/mL in [32] and in [14] were 77.2% and 82.8%, respectively. The inhibition at 1 µg/mL in data set [35] was 60.5%. Further, the outcome in data set [17] and in [18] was inactive.
Regarding `O=C(O)c1cn(C2CC2)c2cc(N3CCNCC3)c(F)cc2c1=O` [CIPROFLOXACIN], the figures for the inhibition at 0.4 µg/mL in data set [37] and in [38] were 26.2% and 42.1%, respectively.
